Measured values taken from patent publication US9428506B2, “Substituted pyrido[3′,4′:4,5]pyrrolo[1,2,3-de]quinoxalines for the treatment of nervous system disorders” (INTRA-CELLULAR THERAPIES, INC., priority 2012, dated 2016).

Legend:
5-HT2A = 5-HT2A (Homo sapiens, UniProt P28223); experiment: Receptor binding activity, 5-HT2A; settings: binding to 5-HT2A, methods of WO/2009/145900
Method: (§1) Binding to 5HT2A, D2 and SERT is assessed, using the methods described in WO/2009/145900. The compounds of Examples 1 and 2 are found to have potent binding to 5-HT2A, SERT and D2, with affinity constants in the sub-micromolar range: […]

D2 = D2 (Homo sapiens, UniProt P14416); experiment: Receptor binding activity, D2; settings: binding to D2, methods of WO/2009/145900
Method: as §1

SERT = SERT (Homo sapiens, UniProt P31645); experiment: Receptor binding activity, SERT; settings: binding to SERT, methods of WO/2009/145900
Method: as §1

D2, sequence (P14416 whole entry): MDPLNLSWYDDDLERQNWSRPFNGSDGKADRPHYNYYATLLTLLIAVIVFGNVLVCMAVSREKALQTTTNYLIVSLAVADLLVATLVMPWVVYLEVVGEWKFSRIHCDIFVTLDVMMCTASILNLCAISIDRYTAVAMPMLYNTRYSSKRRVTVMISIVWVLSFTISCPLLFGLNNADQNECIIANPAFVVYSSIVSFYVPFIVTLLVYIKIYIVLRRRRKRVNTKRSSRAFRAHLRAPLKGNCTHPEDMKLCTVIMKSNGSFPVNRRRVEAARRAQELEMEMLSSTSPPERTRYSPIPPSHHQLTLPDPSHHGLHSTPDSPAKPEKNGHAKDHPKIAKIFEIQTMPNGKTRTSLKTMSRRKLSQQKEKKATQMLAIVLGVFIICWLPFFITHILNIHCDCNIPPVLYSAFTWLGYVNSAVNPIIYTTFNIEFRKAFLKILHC
SERT, sequence (P31645 whole entry, species assumed): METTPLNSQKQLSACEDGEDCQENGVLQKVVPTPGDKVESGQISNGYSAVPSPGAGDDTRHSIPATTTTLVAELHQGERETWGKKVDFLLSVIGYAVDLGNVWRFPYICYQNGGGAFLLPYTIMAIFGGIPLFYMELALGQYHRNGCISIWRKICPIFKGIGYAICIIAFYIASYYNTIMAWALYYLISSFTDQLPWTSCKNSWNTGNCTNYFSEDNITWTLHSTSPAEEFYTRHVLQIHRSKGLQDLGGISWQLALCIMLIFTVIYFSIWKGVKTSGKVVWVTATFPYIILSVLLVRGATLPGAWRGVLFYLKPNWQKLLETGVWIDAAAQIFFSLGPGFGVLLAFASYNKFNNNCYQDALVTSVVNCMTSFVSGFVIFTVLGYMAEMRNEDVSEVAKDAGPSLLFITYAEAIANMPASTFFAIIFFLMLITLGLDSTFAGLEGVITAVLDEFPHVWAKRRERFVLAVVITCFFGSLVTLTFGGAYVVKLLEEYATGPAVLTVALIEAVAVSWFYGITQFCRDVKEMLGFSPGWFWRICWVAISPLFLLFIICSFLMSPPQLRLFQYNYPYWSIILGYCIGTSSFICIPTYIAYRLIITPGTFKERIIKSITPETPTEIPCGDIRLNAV
5-HT2A, sequence (P28223 whole entry, species assumed): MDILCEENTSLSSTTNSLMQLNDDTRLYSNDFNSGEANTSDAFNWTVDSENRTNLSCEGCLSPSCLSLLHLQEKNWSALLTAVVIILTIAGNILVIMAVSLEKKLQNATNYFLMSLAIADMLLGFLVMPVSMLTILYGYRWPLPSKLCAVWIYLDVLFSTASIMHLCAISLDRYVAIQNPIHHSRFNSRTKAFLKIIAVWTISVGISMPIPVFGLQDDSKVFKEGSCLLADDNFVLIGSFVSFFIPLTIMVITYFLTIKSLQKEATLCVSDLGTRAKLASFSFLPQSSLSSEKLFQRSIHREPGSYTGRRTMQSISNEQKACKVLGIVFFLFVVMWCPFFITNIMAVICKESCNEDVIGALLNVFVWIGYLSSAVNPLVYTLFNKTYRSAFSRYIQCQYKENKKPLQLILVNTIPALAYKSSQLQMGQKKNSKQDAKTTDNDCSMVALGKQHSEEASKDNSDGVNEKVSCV

Row | Structure (SMILES) | Ki (5-HT2A) [nM] | Ki (D2) [nM] | Ki (SERT) [nM]
1 | CN1CCN2c3c(cccc31)[C@@H]1CN(CCCC(C)(O)c3ccc(F)cc3)CC[C@@H]12 (stereo partly drawn) [Ex. 1, 2-(4-Fluoro-phenyl)-5-((6bR,10aS)-3-methyl-2,3,6b,9,10,10a-hexahydro-1H,7H-pyrido[3′,4′:4,5]pyrrolo[1,2,3-de]quinoxalin-8-yl)-pentan-2-ol] | 350 | 740 | 520
2 | COC(CCCN1CC[C@H]2[C@@H](C1)c1cccc3c1N2CCN3C)c1ccc(F)cc1 (stereo partly drawn) [Ex. 2, (6bR,10aS)-8-[4-(4-Fluoro-phenyl)-4-methoxy-butyl]-3-methyl-2,3,6b,7,8,9,10,10a-octahydro-1H-pyrido[3′,4′:4,5]pyrrolo[1,2,3-de]quinoxaline] | 96 | 810 | 300
